Results as given in patent US10172832B2, “Amide derivatives of N-urea substituted amino acids as formyl peptide receptor like-1 (FPRL-1) receptor modulators” (Allergan, Inc., priority 2011, dated 2019).

Target: T1, FPRL-1 (Homo sapiens, UniProt P25090)
T1 construct: expressed in transfected cells
T1 sequence (P25090 1-351): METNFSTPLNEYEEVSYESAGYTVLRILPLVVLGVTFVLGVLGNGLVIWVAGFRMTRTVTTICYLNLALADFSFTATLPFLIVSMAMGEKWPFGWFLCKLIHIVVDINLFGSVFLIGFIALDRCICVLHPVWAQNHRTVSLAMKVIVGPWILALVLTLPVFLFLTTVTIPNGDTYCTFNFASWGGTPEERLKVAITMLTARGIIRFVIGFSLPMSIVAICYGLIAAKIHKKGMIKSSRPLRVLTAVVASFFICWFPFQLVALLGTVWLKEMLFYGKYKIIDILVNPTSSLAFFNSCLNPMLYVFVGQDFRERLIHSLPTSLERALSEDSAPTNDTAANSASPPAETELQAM
Test: compound-induced calcium activity on FLIPR Tetra in CHO-Gα16 cells stably expressing FPRL1
Type: cell-based
Settings: for FPRL-1 Ga16-CHO (Rel. eff.): relative efficacy; for EC50: tested 0.61 to 10,000 nM, read-out: FPRL-1 Ga16-CHO EC50
Method: CHO-Gα16 cells stably expressing FPRL1 were cultured in (F12, 10% FBS, 1% PSA, 400 μg/ml geneticin and 50 μg/ml hygromycin) and HEK-Gqi5 cells stable expressing FPR1 were cultured in (DMEM high glucose, 10% FBS, 1% PSA, 400 μg/ml geneticin and 50 μg/ml hygromycin). In general, the day before the experiment, 18,000 cells/well were plated in a 384-well clear bottom poly-d-lysine coated plate. The following day the screening compound-induced calcium activity was assayed on the FLIPR^Tetra. The drug plates were prepared in 384-well microplates using the EP3 and the MultiPROBE robotic liquid handling systems. Compounds were tested at concentrations ranging from 0.61 to 10,000 nM. Results are expressed as EC50 (nM) and efficacy values.

Row | SMILES | FPRL-1 Ga16-CHO (Rel. eff.) | EC50
1 | CC(C)(C)OC(=O)CNC(=O)[C@H](Cc1c[nH]c2ccccc12)NC(=O)Nc1ccc(Br)cc1 (stereo in doubt) [Compound 90, tert-butyl {[2-{[(4-bromophenyl)carbamoyl]amino}-3-(1H-indol-3-yl)propanoyl]amino}acetate] | (1.03) | 305 nM
2 | CCC[C@H](NC(=O)Nc1ccc(Br)cc1F)C(=O)NCC(C)=O [(2S)-2-{[(4-bromo-2-fluorophenyl)carbamoyl]amino}-N-(2-oxopropyl)pentanamide] | (0.92) | 92 nM
3 | CCC[C@H](NC(=O)Nc1ccc(Br)cc1)C(=O)NCC(C)=O [(2S)-2-{[(4-bromophenyl)carbamoyl]amino}-N-(2-oxopropyl)pentanamide] | (1.05) | 35 nM
4 | O=C(O)CNC(=O)[C@H](Cc1ccccc1)NC(=O)Nc1ccc(Br)cc1 [Compound 1, {[(2S)-2-{[(4-bromophenyl)carbamoyl]amino}-3-phenylpropanoyl]amino}acetic acid] | (0.99) | 7.7 nM
5 | O=C(O)CCNC(=O)[C@H](Cc1ccccc1)NC(=O)Nc1ccc(Br)cc1 [Compound 2, 3-{[(2S)-2-{[(4-bromophenyl)carbamoyl]amino}-3-phenylpropanoyl]amino}propanoic acid] | (0.98) | 18 nM
6 | CC[C@H](C)[C@H](NC(=O)Nc1ccc(Br)cc1F)C(=O)NCC(=O)O [Compound 3, {[(2S,3S)-2-{[(4-bromo-2-fluorophenyl)carbamoyl]amino}-3-methylpentanoyl]amino}acetic acid] | (0.95) | 5.5 nM
7 | CC[C@H](C)[C@H](NC(=O)Nc1ccc(Br)cc1)C(=O)NCC(=O)O [Compound 4, {[(2S,3S)-2-{[(4-bromophenyl)carbamoyl]amino}-3-methylpentanoyl]amino}acetic acid] | (1.00) | 2.7 nM
8 | CCC[C@H](NC(=O)Nc1ccc(Br)cc1)C(=O)NCC(=O)O [Compound 5, {[(2S)-2-{[(4-bromophenyl)carbamoyl]amino}pentanoyl]amino}acetic acid] | (0.91) | 3.2 nM
9 | CC(C)(C)OC(=O)CNC(=O)[C@H](Cc1ccccc1)NC(=O)Nc1ccc(Br)cc1 [Compound 7, tert-Butyl {[(2S)-2-{[(4-bromophenyl)carbamoyl]amino}-3-phenylpropanoyl]amino}acetate] | (0.91) | 118 nM
10 | CC(C)(C)OC(=O)CCNC(=O)[C@H](Cc1ccccc1)NC(=O)Nc1ccc(Br)cc1 [Compound 8, tert-butyl 3-{[(2S)-2-{[(4-bromophenyl)carbamoyl]amino}-3-phenylpropanoyl]amino}propanoate] | (1.00) | 255 nM
11 | O=C(Nc1ccc(Br)cc1)N[C@@H](Cc1ccccc1)C(=O)NCCO [Compound 9, (2S)-2-{[(4-bromophenyl)carbamoyl]amino}-N-(2-hydroxyethyl)-3-phenylpropanamide] | (0.92) | 6 nM
12 | CC[C@H](C)[C@H](NC(=O)Nc1ccc(Br)cc1F)C(=O)NCC(=O)OC(C)(C)C [Compound 10, tert-butyl{[(2S,3S)-2-{[(4-bromo-2-fluorophenyl)carbamoyl]amino}-3-methylpentanoyl]amino}acetate] | (0.86) | 757 nM
13 | CC[C@H](C)[C@H](NC(=O)Nc1ccc(Br)cc1)C(=O)NCC(=O)OC(C)(C)C [Compound 11, tert-butyl{[(2S,3S)-2-{[(4-bromophenyl)carbamoyl]amino}-3-methylpentanoyl]amino}acetate] | (0.85) | 280 nM
14 | CC[C@H](C)[C@H](NC(=O)Nc1ccc(Br)cc1)C(=O)NCC(C)=O [Compound 12, (2S,3S)-2-{[(4-bromophenyl)carbamoyl]amino}-3-methyl-N-(2-oxopropyl)pentanamide] | (0.97) | 10 nM
15 | CC[C@H](C)[C@H](NC(=O)Nc1ccc(Br)cc1F)C(=O)NCC(C)=O [Compound 13, (2S,3S)-2-{[(4-bromo-2-fluorophenyl)carbamoyl]amino}-3-methyl-N-(2-oxopropyl)pentanamide] | (1.01) | 36 nM
16 | CC[C@H](C)[C@H](NC(=O)Nc1ccc(Br)cc1)C(=O)NCCO [Compound 14, (2S,3S)-2-{[(4-bromophenyl)carbamoyl]amino}-N-(2-hydroxyethyl)-3-methylpentanamide] | (1.00) | 24 nM

Row | SMILES | FPRL-1 Ga16-CHO (Rel. eff.) | EC50
17 | CC[C@H](C)[C@H](NC(=O)Nc1ccc(Br)cc1F)C(=O)NCCO [Compound 15, (2S,3S)-2-{[(4-bromo-2-fluorophenyl)carbamoyl]amino}-N-(2-hydroxyethyl)-3-methylpentanamide] | (1.00) | 62 nM
18 | CC(=O)CNC(=O)[C@H](Cc1ccccc1)NC(=O)Nc1ccc(Br)cc1 [Compound 16, (2S)-2-{[(4-bromophenyl)carbamoyl]aminio}-N-(2-oxopropyl)-3-phenylpropanamide] | (0.96) | 29 nM
19 | CC(=O)CNC(=O)[C@H](Cc1ccccc1)NC(=O)Nc1ccc(Br)cc1F [Compound 17, (2S)-2-{[(4-bromo-2-fluorophenyl)carbamoyl]amino}-N-(2-oxopropyl)-3-phenylpropanamide] | (0.94) | 12 nM
20 | CCC[C@H](NC(=O)Nc1ccc(Br)cc1)C(=O)NCC(=O)OC(C)(C)C [Compound 18, tert-butyl {[(2S)-2-{[(4-bromophenyl)carbamoyl]amino}-pentanoyl]amino}acetate] | (0.95) | 31 nM
21 | O=C(Nc1ccc(Br)cc1F)N[C@@H](Cc1ccccc1)C(=O)NCCO [Compound 19, (2S)-2-{[(4-bromo-2-fluorophenyl)carbamoyl]amino}-N-(2-hydroxyethyl)-3-phenylpropanamide] | (0.98) | 16 nM
22 | CCC[C@H](NC(=O)Nc1ccc(Br)cc1)C(=O)NCCO [Compound 20, (2S)-2-{[(4-bromophenyl)carbamoyl]amino}-N-(2-hydroxyethyl)pentanamid] | (0.92) | 38 nM
23 | CCC[C@H](NC(=O)Nc1ccc(Br)cc1F)C(=O)NCCO [Compound 21, (2S)-2-{[(4-bromo-2-fluorophenyl)carbamoyl]amino}-N-(2-hydroxyethyl) pentanamide] | (0.87) | 105 nM
24 | CCC[C@H](NC(=O)Nc1ccc(Br)cc1)C(=O)NCC(=O)OC [Compound 22, methyl {[(2S)-2-{[(4-bromophenyl)carbamoyl]amino}-pentanoyl]amino}acetate] | (0.88) | 17 nM
25 | CCC[C@H](NC(=O)Nc1ccc(Br)cc1)C(=O)NCC(=O)OCC [Compound 23, ethyl {[(2S)-2-{[(4-bromophenyl)carbamoyl]amino}-pentanoyl]amino}acetate] | (1.18) | 57 nM
26 | CCC[C@H](NC(=O)Nc1ccc(Br)cc1)C(=O)NCC(=O)OC(C)C [Compound 24, isopropyl {[(2S)-2-{[(4-bromophenyl)carbamoyl]amino}-pentanoyl]amino}acetate] | (1.04) | 14 nM
27 | CC(C)C[C@H](NC(=O)Nc1ccc(Br)cc1)C(=O)NCC(=O)OC(C)(C)C [Compound 25, tert-butyl {[(2S)-2-{[(4-bromophenyl)carbamoyl]amino}-4-methylpentanoyl]amino}acetate] | (0.85) | 140 nM
28 | CC(C)C[C@H](NC(=O)Nc1ccc(Br)cc1)C(=O)NCCO [Compound 26, (2S)-2-{[(4-bromophenyl)carbamoyl]amino}-N-(2-hydroxyethyl)-4-methylpentanamide] | (0.92) | 11 nM
29 | CC(=O)CNC(=O)[C@H](CC(C)C)NC(=O)Nc1ccc(Br)cc1 [Compound 27, (2S)-2-{[(4-bromophenyl)carbamoyl]amino}-4-methyl-N-(2-oxopropyl)pentanamide] | (0.82) | 4.7 nM
30 | CC[C@H](C)[C@H](NC(=O)Nc1ccc(Br)cc1)C(=O)NCC(N)=O [Compound 28, (2S,3S)—N-(2-amino-2-oxoethyl)-2-{[(4-bromophenyl)carbamoyl]amino}-3-methylpentanamide] | (0.81) | 4.6 nM
31 | CC[C@H](C)[C@H](NC(=O)Nc1ccc(Br)cc1F)C(=O)NCC(N)=O [Compound 29, (2S,3S)-N-(2-amino-2-oxoethyl)-2-{[(4-bromo-2-fluorophenyl)carbamoyl]amino}-3-methylpentanamide] | (1.00) | 10 nM
32 | CCC[C@H](NC(=O)Nc1ccc(Br)cc1)C(=O)NCC(N)=O [Compound 30, (2S)-N-(2-amino-2-oxoethyl)-2-{[(4-bromophenyl)carbamoyl]amino}-pentanamide] | (0.97) | 2.5 nM
